Each structure is given as a SMILES string.

As a reminder, the IC50 is the concentration needed to halve the response being measured. In general, inhibition refers to the share of the control response that was lost under treatment.

In experiment [1] the test system is VEGF induced increases in intracellular calcium levels in HUVEC (human umbilical vein endothelial cells). As to the kind of experiment: VEGF Stimulated Ca++ Signal in vitro (FLIPR). The experiment is classed as cell-based. The conditions noted are these: VEGF 5 ng/mL; for IC50: 0.01 to 10.0 μM. A digest of the protocol: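 IC50 values derive from % inhibition of the VEGF (5 ng/mL) calcium response, taken as max-min fluorescence at 516 nm in Fluo-4-loaded HUVEC. Compounds (0.1% DMSO final) were added 30 min before stimulation, at 10 μM or across 0.01–10.0 μM.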

Experiment [2] addresses T1, cytoplasmic domain of the human VEGF receptor (VEGFR-2) (Homo sapiens, UniProt P35968).
T1 construct: The cytoplasmic domain of the human VEGF receptor (VEGFR-2) was expressed as a Histidine-tagged fusion protein; Histidine tag
Briefly: KDR Assay. The conditions noted are these: His-VEGFR-2; 3.6 μM ATP. The experiment is classed as biochemical. An outline of the steps: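 IC50 taken from blank-corrected OD492 curves of an anti-phosphotyrosine peroxidase ELISA. Reaction: 10 min, 25 °C, 3.6 μM ATP, 50 mM Hepes pH 7.4 with 20 mM MgCl2, 0.1 mM MnCl2 and 5% DMSO, on poly-Glu-Tyr-coated wells, started with insect-cell-expressed His-VEGFR-2 cytoplasmic domain.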

T1 sequence (P35968 786-1356): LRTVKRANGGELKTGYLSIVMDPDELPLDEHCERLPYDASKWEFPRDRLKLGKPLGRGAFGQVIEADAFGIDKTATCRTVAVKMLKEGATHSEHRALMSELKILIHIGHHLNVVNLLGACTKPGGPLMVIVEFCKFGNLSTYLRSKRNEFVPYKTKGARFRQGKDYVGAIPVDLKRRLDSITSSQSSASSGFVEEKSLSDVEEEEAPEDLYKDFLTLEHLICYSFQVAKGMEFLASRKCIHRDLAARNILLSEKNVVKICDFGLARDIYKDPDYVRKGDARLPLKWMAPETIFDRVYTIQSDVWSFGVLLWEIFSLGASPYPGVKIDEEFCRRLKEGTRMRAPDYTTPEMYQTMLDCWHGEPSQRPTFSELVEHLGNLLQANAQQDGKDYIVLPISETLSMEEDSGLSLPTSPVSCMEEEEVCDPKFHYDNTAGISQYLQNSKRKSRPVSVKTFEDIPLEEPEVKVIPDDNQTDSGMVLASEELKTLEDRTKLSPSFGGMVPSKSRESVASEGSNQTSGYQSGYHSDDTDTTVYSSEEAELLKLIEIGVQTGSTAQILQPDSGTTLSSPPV

Consider `NC(=O)c1ccc(NC=C2C(=O)Nc3ccc(F)cc32)cc1` [Example 170, 4-[(5-Fluoro-2-oxo-1,2-dihydro-indol-3-ylidenemethyl)-amino]-benzamide], for which the half-maximal inhibitory concentration (IC50) was 0.59 µM in experiment [1], not above 1 µM in experiment [1] (Homo sapiens) and 0.41 µM in experiment [2]. In experiment [1] (Homo sapiens), the inhibition at 10 µM came to 96.7%.

For the molecule `O=C1Nc2ccccc2C1=CNc1ccc(OCCCI)cc1` [Example 200, 3-{[4-(3-Iodo-propoxy)-phenylamino]-methylene}-1,3-dihydro-indol-2-one], in experiment [1] (Homo sapiens), the inhibition at 10 µM was determined as 75.2% and the IC50 was found to be 3.48 µM. In experiment [2], inhibition was half-maximal at 0.74 µM (IC50).

As to `CCc1cccc(NC=C2C(=O)Nc3ccccc32)c1` [Example 6], in experiment [1] (Homo sapiens), the inhibition at 10 µM came out at 90.1% and the IC50 was determined as 1.84 µM. For the same molecule, in experiment [2], the 50% inhibitory concentration (IC50) was 0.52 µM.

`Cc1cccc2c1C(=CNc1ccc(OC(F)F)cc1)C(=O)N2` [Example 119, 3-{[4-(1,1-Difluoro-methoxy)-phenylamino]-methylene}-4-methyl-1,3-dihydro-indol-2-one]: in experiment [1] (Homo sapiens), the inhibition at 10 µM turned out to be 89.3% and the IC50 was 1.34 µM. Moreover, 0.53 µM corresponded to half-maximal inhibition in experiment [2] (IC50).

With `COc1ccc(NC=C2C(=O)Nc3ccccc32)cc1F` [Example 21, 3-[(3-Fluoro-4-methoxy-phenylamino)-methylene]-1,3-dihydro-indol-2-one], the inhibition at 10 µM in experiment [1] (Homo sapiens) came to 88%. Further, the IC50 in experiment [1] (Homo sapiens) amounted to 1.5 µM; in experiment [2], 0.72 µM.

As to `O=C1Nc2cccc(F)c2C1=CNc1ccc(OCCCN2CCCCC2)cc1` [Example 255, 4-Fluoro-3-{[4-(3-piperidin-1-yl-propoxy)-phenylamino]-methylene}-1,3-dihydro-indol-2-one], the results for the 50% inhibitory concentration (IC50) in experiment [1] (Homo sapiens) and in experiment [2] were 1.3 µM and 0.44 µM, respectively.

As for `O=C1Nc2ccc(F)cc2C1=CNc1ccc(CO)cc1` [Example 178, 5-Fluoro-3-[(4-hydroxymethyl-phenylamino)-methylene]-1,3-dihydro-indol-2-one], in experiment [1] (Homo sapiens), the inhibition at 10 µM came out at 98.8% and the 50% inhibitory concentration (IC50) is 1.06 µM. This molecule showed an IC50 in experiment [2] of 0.53 µM.

Take `COc1ccc(NC=C2C(=O)Nc3ccc(F)cc32)cc1` [Example 222, 5-Fluoro-3-[(4-methoxy-phenylamino)-methylene]-1,3-dihydro-indol-2-one]: the inhibition at 10 µM in experiment [1] (Homo sapiens) worked out at 48.8%. Moreover, the IC50 in experiment [2] was 0.47 µM.

Take `Cc1cccc2c1C(=CNc1ccc(CO)cc1)C(=O)N2` [Example 99, 3-[(4-Hydroxymethyl-phenylamino)-methylene]-4-methyl-1,3-dihydro-indol-2-one]: in experiment [1] (Homo sapiens), the inhibition at 10 µM is 97.8%. The molecule further came in with a 50% inhibitory concentration (IC50) in experiment [2] of 0.21 µM.

On to `O=C1Nc2cccc(F)c2C1=CNc1ccc(OCCN2CCCC2)cc1` [Example 273, 4-Fluoro-3-{[4-(2-pyrrolidin-1-yl-ethoxy)-phenylamino]-methylene}-1,3-dihydro-indol-2-one], for which the half-maximal inhibitory concentration (IC50) was determined as 1.07 µM in experiment [1] (Homo sapiens) and 0.33 µM in experiment [2].

`CN1CCN(c2ccc(NC=C3C(=O)Nc4cc(F)ccc43)cc2)CC1` [Example 230, 6-Fluoro-3-{[4-(4-methyl-piperazin-1-yl)-phenylamino]-methylene}-1,3-dihydro-indol-2-one]: the inhibition at 10 µM in experiment [1] (Homo sapiens) was determined as 96.4%. Moreover, the IC50 in experiment [2] stood at 0.08 µM.

On to `Cc1cccc2c1C(=CNc1ccc(NC(=O)OC(C)(C)C)cc1)C(=O)N2` [Example 187, {4-[(4-Methyl-2-oxo-1,2-dihydro-indol-3-ylidenemethyl)-amino]-phenyl}-carbamic acid tert-butyl ester], for which, in experiment [1] (Homo sapiens), the inhibition at 10 µM worked out at 96.8% and the 50% inhibitory concentration (IC50) was determined as 1.67 µM. This molecule also came in with an IC50 in experiment [2] of 0.27 µM.

Consider `COc1ccc(NC=C2C(=O)Nc3ccc(F)cc32)cc1O` [Example 164, 5-Fluoro-3-[(3-hydroxy-4-methoxy-phenylamino)-methylene]-1,3-dihydro-indol-2-one], for which, in experiment [1] (Homo sapiens), the inhibition at 10 µM came out at 98.8%. Also, the IC50 in experiment [2] turned out to be 0.38 µM.

In the case of `CCc1cccc(NC=C2C(=O)Nc3cccc(C)c32)c1` [Example 147, 3-[(3-Ethyl-phenylamino)-methylene]-4-methyl-1,3-dihydro-indol-2-one], in experiment [1] (Homo sapiens), the inhibition at 10 µM came out at 71.6% and the concentration for half-maximal inhibition (IC50) is 5.49 µM. The molecule further gave a half-inhibitory concentration (IC50) in experiment [2] of 0.15 µM.

On to `Cc1ccc(NC=C2C(=O)Nc3cccc(C)c32)cc1N` [Example 213, 3-[(3-Amino-4-methyl-phenylamino)-methylene]-4-methyl-1,3-dihydro-indol-2-one], for which the IC50 in experiment [1] was 0.65 µM; in experiment [1] (Homo sapiens) it was not above 1 µM; in experiment [2], 0.15 µM. For the same molecule, the inhibition at 10 µM in experiment [1] (Homo sapiens) turned out to be 95%.

Consider `Cc1cccc2c1C(=CNc1ccc3cn[nH]c3c1)C(=O)N2` [Example 90, 3-[(1H-Indazol-6-ylamino)-methylene]-4-methyl-1,3-dihydro-indol-2-one], for which the inhibition at 10 µM in experiment [1] (Homo sapiens) was found to be 97.8%. In addition, in experiment [2], 0.22 µM corresponded to half-maximal inhibition (IC50).

Consider `CN1CCN(CCCOc2ccc(NC=C3C(=O)Nc4ccccc43)cc2)CC1` [Example 217, 3-({4-[3-(4-Methyl-piperazin-1-yl)-propoxy]-phenylamino}-methylene)-1,3-dihydro-indol-2-one], for which the IC50 in experiment [1] was 0.86 µM; in experiment [1] (Homo sapiens) it was not above 1 µM; in experiment [2], 0.28 µM. For the same molecule, the inhibition at 10 µM in experiment [1] (Homo sapiens) worked out at 97.7%.

As for `O=C1Nc2cccc(F)c2C1=CNc1ccc(CCN2CCCCC2)cc1` [Example 287, 4-Fluoro-3-{[4-(2-piperidin-1-yl-ethyl)-phenylamino]-methylene}-1,3-dihydro-indol-2-one], the half-maximal inhibitory concentration (IC50) in experiment [1] is 0.62 µM; in experiment [1] (Homo sapiens), not above 1 µM; in experiment [2], 0.11 µM.

Consider `O=C1Nc2cccc(F)c2C1=CNc1ccc(CN2CCOCC2)cc1` [Example 293, 4-Fluoro-3-[(4-morpholin-4-ylmethyl-phenylamino)-methylene]-1,3-dihydro-indol-2-one], for which the values for the IC50 in experiment [1], in experiment [1] (Homo sapiens) and in experiment [2] were 0.88 µM, not above 1 µM and 0.47 µM, respectively.

On to `CN1CCN(c2ccc(NC=C3C(=O)Nc4ccc(F)cc43)cc2)CC1` [Example 168, 5-Fluoro-3-{[4-(4-methyl-piperazin-1-yl)-phenylamino]-methylene}-1,3-dihydro-indol-2-one], for which the inhibition at 10 µM in experiment [1] (Homo sapiens) was determined as 94.3%. Besides, the midpoint of inhibition in experiment [2], the IC50, lay at 0.14 µM.

`O=C(O)CCc1cccc(NC=C2C(=O)Nc3ccc(Cl)cc32)c1` [Example 143, 3-{3-[(5-Chloro-2-oxo-1,2-dihydro-indol-3-ylidenemethyl)-amino]-phenyl}-propionic acid]: the inhibition at 10 µM in experiment [1] (Homo sapiens) came to 66.9%. The half-maximal inhibitory concentration (IC50) in experiment [1] (Homo sapiens) is 7.61 µM; in experiment [2], 0.52 µM.

As to `O=C1Nc2ccccc2C1=CNc1ccc(OCCCN2CCC(F)C2)cc1` (stereo not drawn) [Example 305, 3-({4-[3-(3-Fluoro-pyrrolidin-1-yl)-propoxy]-phenylamino}-methylene)-1,3-dihydro-indol-2-one], the IC50 in experiment [1] is 0.55 µM; in experiment [1] (Homo sapiens), not above 1 µM; in experiment [2] it was 0.31 µM.

As for `COc1ccc(NC=C2C(=O)Nc3cccc(C)c32)cc1O` [Example 117, 3-[(3-Hydroxy-4-methoxy-phenylamino)-methylene]-4-methyl-1,3-dihydro-indol-2-one], the inhibition at 10 µM in experiment [1] (Homo sapiens) came to 97.7%. Moreover, the 50% inhibitory concentration (IC50) in experiment [2] came out at 0.31 µM.

As to `COc1ccc(NC=C2C(=O)Nc3ccccc32)cc1O` [Example 49, 3-[(3-Hydroxy-4-methoxy-phenylamino)-methylene]-1,3-dihydro-indol-2-one], the inhibition at 10 µM in experiment [1] (Homo sapiens) came to 97.1%. Also, in experiment [2], the IC50 was determined as 0.51 µM.

For the molecule `O=C1Nc2cc(F)ccc2C1=CNc1ccc(N2CCOCC2)cc1` [Example 228, 6-Fluoro-3-[(4-morpholin-4-yl-phenylamino)-methylene]-1,3-dihydro-indol-2-one], in experiment [1] (Homo sapiens), the inhibition at 10 µM worked out at 97.2%. In addition, the IC50 in experiment [2] is 0.08 µM.

As to `O=C(O)CCCc1ccc(NC=C2C(=O)Nc3ccc(Cl)cc32)cc1` [Example 150, 4-{4-[(5-Chloro-2-oxo-1,2-dihydro-indol-3-ylidenemethyl)-amino]-phenyl}-butyric acid], in experiment [1] (Homo sapiens), the inhibition at 10 µM is 90.9% and the IC50 amounted to 1.85 µM. In experiment [2], half-maximal inhibition (IC50) required 0.3 µM.

Regarding `O=C1Nc2ccccc2C1=CNc1ccc(OCCCCl)cc1` [Example 198, 3-{[4-(3-Chloro-propoxy)-phenylamino]-methylene}-1,3-dihydro-indol-2-one], in experiment [1] (Homo sapiens), the inhibition at 10 µM was 56.3%. Besides, the concentration for half-maximal inhibition (IC50) in experiment [1] (Homo sapiens) was determined as 7.92 µM; in experiment [2] it was 0.47 µM.

With `N#Cc1ccc(NC=C2C(=O)Nc3ccccc32)cc1` [Example 29, 3-[(4-Cyanophenylamino)-methylene]-1,3-dihydro-indol-2-one], in experiment [1] (Homo sapiens), the inhibition at 10 µM was determined as 81.5% and the 50% inhibitory concentration (IC50) came out at 7.29 µM. Further, in experiment [2], half-maximal inhibition (IC50) was put at 0.68 µM.

`O=C1Nc2ccc(F)cc2C1=CNc1ccc(NCCN2CCOCC2)cc1` [Example 244, 5-Fluoro-3-{[4-(2-morpholin-4-yl-ethylamino)-phenylamino]-methylene}-1,3-dihydro-indol-2-one]: the inhibition at 10 µM in experiment [1] (Homo sapiens) amounted to 96%. The molecule also came in with an IC50 in experiment [2] of 0.19 µM.

On to `CCN(CC)Cc1cc(NC=C2C(=O)Nc3ccc(Cl)cc32)ccc1O` [Example 109, 5-Chloro-3-[(4-hydoxy-3-(diethylaminomethyl)phenylamino)-methylene]-1,3-dihydro-indol-2-one], for which, in experiment [1] (Homo sapiens), the inhibition at 10 µM amounted to 96.5% and the 50% inhibitory concentration (IC50) was 1.7 µM. In experiment [2], this molecule displayed a half-inhibitory concentration (IC50) of 0.6 µM.
